# In PMC4130425, “Therapeutic drug monitoring of voriconazole: a case report of multiple drug interactions in a patient with an increased CYP2C19 activity” (AIDS Research and Therapy, 2014):
# Like-named read-outs stand apart in the source and are kept apart here.
# Legend:
# [1] = human, in vivo
# Procedure: The patient was genotyped for CYP2C19.
# Time course of (A) voriconazole i. v. dosage administration, (B) comedication with esomeprazole or ranitidine and (C) associated antiretroviral therapy. Voriconazole plasma trough concentrations. qd: once a day; b.i.d.: Twice a day.
# Ranitidine was replaced by esomeprazole 40 mg IV bid.
# [2] = set-up: method as in PMID 22751544; conditions: target trough range; cited from earlier work
# CYP2C19 = target: T1, CYP2C19 (Homo sapiens, UniProt P33261); test: CYP2C19 phenotyping with 2 mg omeprazole (omeprazole metabolic ratio); type: in vivo; conditions: while on CYP2C19 inhibitor esomeprazole, cut-off = 5, showed decreased CYP2C19 activity
# T1 construct: endogenous in cells; host or cells: patient in vivo (endogenous enzyme)
# T1 sequence (P33261 whole entry): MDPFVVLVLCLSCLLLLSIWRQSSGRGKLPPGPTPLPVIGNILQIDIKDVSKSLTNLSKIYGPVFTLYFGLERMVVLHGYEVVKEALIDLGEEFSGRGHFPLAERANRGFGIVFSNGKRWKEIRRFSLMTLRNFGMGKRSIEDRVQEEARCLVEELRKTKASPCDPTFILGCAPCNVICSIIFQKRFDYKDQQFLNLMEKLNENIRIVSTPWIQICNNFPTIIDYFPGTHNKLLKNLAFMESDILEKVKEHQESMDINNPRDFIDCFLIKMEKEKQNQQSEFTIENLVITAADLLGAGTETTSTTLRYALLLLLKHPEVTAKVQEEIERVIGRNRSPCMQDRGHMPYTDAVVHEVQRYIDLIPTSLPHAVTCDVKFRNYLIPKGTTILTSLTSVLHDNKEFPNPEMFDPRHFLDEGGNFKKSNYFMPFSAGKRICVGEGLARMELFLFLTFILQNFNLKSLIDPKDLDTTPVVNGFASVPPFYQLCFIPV
omeprazole metabolic ratio (CYP2C19),Compound,Voriconazole first trough concentration (C0) ([1]; female),Voriconazole C0 versus therapeutic range [1],Voriconazole C0 versus therapeutic range ([1]; 2.5 mg/kg),Voriconazole C0 therapeutic range [2]
–,C[C@@H](c1ncncc1F)[C@](O)(Cn1cncn1)c1ccc(F)cc1F [Voriconazole],< 1000 ng/mL,below the therapeutic range,within the therapeutic range,1000 to 5000 ng/mL
10.5,COc1ccc2[nH]c([S+]([O-])Cc3ncc(C)c(OC)c3C)nc2c1 (centres unmarked) [omeprazole],–,–,–,–
